Patent US12447121B2, “Composition for promoting the skin microbiome” (BEIERSDORF AG, priority 2020, dated 2025)
“Also recorded” adds a separate entry of the source.

Experiments:
S. epidermidis [1] = experiment: In vitro growth assay (OD, absorption at 600 nm); assay type: cell-based; details: CASO deficiency medium
Method: Overnight cultures of S. epidermidis were inoculated in 20 ml CASO medium and incubated at 37° C. The culture was then diluted and adjusted to an OD600 of 0.25. From this suspension, the starting culture is prepared with a concentration of 5×10^5 CFU/ml by a 1:200 dilution in CASO deficiency medium. Subsequently, solutions containing the different nitrogen, carbon, and lipid sources were mixed with the start cultures and 200 μl/well were pipetted into a 96 well flat transparent plate, at least in triplets. The plate was placed in a Tecan Reader at 37° C. and Absorption was measured at 600 nm every hour over a period of 24-30 h.

skin microbiome = experiment: In vivo volunteer study: microbial colony count of skin microbiome samples; set-up: species or system human; details: applied in the form of a skin care composition to the facial skin (as worded in the summary)
Method: An in vivo study with 31 volunteers was conducted to examine whether the growth-enhancing compounds that were found effective in the in vitro test can also promote cell growth of the microorganisms in the skin microbiome in vivo when applied to the skin in the form of a lotion. For this purpose, a carrier lotion was prepared to which the test compounds, i.e. the compounds identified as growth-enhancing in the in vitro assays of Example 1, were added. The test formulations were prepared by mixing the compounds to be tested into the carrier lotion. The test formulations were composed as follows: • Formulation 20: […] Carrier lotion+1% urea, 1% sodium Lactate, 1% caprylic/capric triglycerides […] For measuring the microbial colony count, the test site was rinsed with swabs ([…] GmbH, […], Germany) by 3×10 lanes using 2 ml rinsing buffer (12.49 g/L Na2HPO; 0.63 g/L KH2PO4 in molecular grade H2O) in 15 ml Falcon tubes. The sample material was then plated within 60 minutes after collection on Columbia-Sheep-Blood-Tween (COST) agar plates and subsequently incubated. […] After incubation, the bacterial colonies on agar plates were counted using the Countermat Flash.

S. epidermidis [2] = experiment: In vitro growth assay (plating, colony count); assay type: cell-based; details: added to low nutrient medium, 37° C., plated and counted; FIGS. 1 and 2
Method: Potential growth-enhancing compounds that are effective in the stabilization of the microbiome were tested by the following in vitro assay. Overnight cultures of S. epidermidis is inoculated in 20 ml CASO medium and incubated at 37° C. The culture was then diluted and adjusted to an OD600 of 0.25. From this suspension, the starting culture is prepared with a concentration of 5×10^5 CFU/ml by a 1:200 dilution in CASO deficiency medium. Subsequently, solutions containing the different active ingredients were mixed with the start cultures and incubated in a thermal mixer at 37° C. by shaking. Samples are taken at the respective time points for testing, diluted with NaCl and plated out on CASO plates using the spiral plater. The plates are incubated for 24 h at 37° C. and then counted.

## maltodextrin
S. epidermidis [1]
  growth of S. epidermidis (summary in words of Tables 2 and 3): support the growth

## CC(O)C(=O)O (centres unmarked) [lactic acid]
Skin microbiome
  cell number of the resident bacteria: increase

## OC[C@H]1O[C@H](O[C@H]2[C@H](O)[C@@H](O)C(O)O[C@@H]2CO)[C@H](O)[C@@H](O)[C@@H]1O (mixture of isomers) [Maltose, maltose]
S. epidermidis [1]
  growth of S. epidermidis (summary in words of Tables 2 and 3): support the growth

## OC[C@H]1O[C@@](CO)(O[C@H]2O[C@H](CO)[C@@H](O)[C@H](O)[C@H]2O)[C@@H](O)[C@@H]1O [Sucrose, saccharose]
S. epidermidis [1]
  growth of S. epidermidis (summary in words of Tables 2 and 3): support the growth

## CC(=O)C(=O)O [pyruvic acid]
Skin microbiome
  cell number of the resident bacteria: significantly increase

## O=C(CO)[C@@H](O)[C@H](O)[C@H](O)CO [Fructose, fructose]
S. epidermidis [1]
  growth of S. epidermidis (summary in words of Tables 2 and 3): support the growth

## CC(O)C(=O)O (centres unmarked) [Lactate, lactate]
S. epidermidis [2]
  growth of S. epidermidis within 24 hours: significant growth; also recorded: significantly promotes the growth
S. epidermidis [1]
  growth of S. epidermidis (summary in words of Tables 2 and 3): support the growth
